Laboratory results taken from PMC11003488 (Journal of Enzyme Inhibition and Medicinal Chemistry, 2023).

Experiments:
786-0 = assay: NCI-60 SRB growth inhibition, one-dose and five-dose; type: cell-based; conditions: Homo sapiens, 786-0, read-out: percent growth inhibition
K-562 = assay: as above; type: cell-based; conditions: Homo sapiens, K562, read-out: percent growth inhibition
MOLT-4 = assay: as above; type: cell-based; conditions: Homo sapiens, MOLT-4, read-out: percent growth inhibition
[1] = test system: NCI 60-cell line panel (full panel); assay: NCI-60 SRB growth inhibition, full panel mean / MG-MID; type: cell-based, human; conditions: mean over NCI-60 panel; single dose 10 µM
A549/ATCC = assay: NCI-60 SRB growth inhibition, one-dose and five-dose; type: cell-based; conditions: Homo sapiens, A549, read-out: percent growth inhibition
HT29 = assay: as above; type: cell-based; conditions: Homo sapiens, HT-29, read-out: percent growth inhibition
M14 = assay: as above; type: cell-based; conditions: Homo sapiens, M14, read-out: percent growth inhibition
OVCAR-3 = assay: as above; type: cell-based; conditions: Homo sapiens, OVCAR-3, read-out: percent growth inhibition
SK-OV-3 = assay: as above; type: cell-based; conditions: Homo sapiens, SK-OV-3, read-out: percent growth inhibition
SW-620 = assay: as above; type: cell-based; conditions: Homo sapiens, SW-620, read-out: percent growth inhibition
COLO 205 = assay: as above; type: cell-based; conditions: Homo sapiens, COLO 205, read-out: percent growth inhibition
OVCAR-4 = assay: as above; type: cell-based; conditions: Homo sapiens, OVCAR-4, read-out: percent growth inhibition
CCRF-CEM = assay: as above; type: cell-based; conditions: Homo sapiens, read-out: percent growth inhibition
NCI-H522 = assay: as above; type: cell-based; conditions: Homo sapiens, NCI-H522, read-out: percent growth inhibition
T-47D = assay: as above; type: cell-based; conditions: Homo sapiens, T47D, read-out: percent growth inhibition
NCI-H460 = assay: as above; type: cell-based; conditions: Homo sapiens, NCI-H460, read-out: percent growth inhibition
MALME-3M = assay: as above; type: cell-based; conditions: Homo sapiens, read-out: percent growth inhibition
SF-295 = assay: as above; type: cell-based; conditions: Homo sapiens, SF-295, read-out: percent growth inhibition
NCI-H322M = assay: as above; type: cell-based; conditions: Homo sapiens, read-out: percent growth inhibition
NCI/ADR-RES = assay: as above; type: cell-based; conditions: Homo sapiens, read-out: percent growth inhibition
MDA-MB-468 = assay: as above; type: cell-based; conditions: Homo sapiens, MDA-MB-468, read-out: percent growth inhibition
NCI-H23 = assay: as above; type: cell-based; conditions: Homo sapiens, NCI-H23, read-out: percent growth inhibition
SR = assay: as above; type: cell-based; conditions: Homo sapiens, read-out: percent growth inhibition
CAKI-1 = assay: as above; type: cell-based; conditions: Homo sapiens, CAKI-1, read-out: percent growth inhibition
RXF 393 = assay: as above; type: cell-based; conditions: Homo sapiens, RXF 393, read-out: percent growth inhibition
OVCAR-5 = assay: as above; type: cell-based; conditions: Homo sapiens, OVCAR-5, read-out: percent growth inhibition
BT-549 = assay: as above; type: cell-based; conditions: Homo sapiens, BT-549, read-out: percent growth inhibition
U251 = assay: as above; type: cell-based; conditions: Homo sapiens, U-251, read-out: percent growth inhibition
UACC-257 = assay: as above; type: cell-based; conditions: Homo sapiens, UACC-257, read-out: percent growth inhibition
SK-MEL-5 = assay: as above; type: cell-based; conditions: Homo sapiens, SK-MEL-5, read-out: percent growth inhibition
LOX IMVI = assay: as above; type: cell-based; conditions: Homo sapiens, read-out: percent growth inhibition
DU-145 = assay: as above; type: cell-based; conditions: Homo sapiens, DU-145, read-out: percent growth inhibition
SNB-19 = assay: as above; type: cell-based; conditions: Homo sapiens, SNB-19, read-out: percent growth inhibition
EKVX = assay: as above; type: cell-based; conditions: Homo sapiens, read-out: percent growth inhibition
SK-MEL-28 = assay: as above; type: cell-based; conditions: Homo sapiens, SK-MEL-28, read-out: percent growth inhibition
HCT-15 = assay: as above; type: cell-based; conditions: Homo sapiens, HCT-15, read-out: percent growth inhibition
SF-268 = assay: as above; type: cell-based; conditions: Homo sapiens, SF-268, read-out: percent growth inhibition
MCF7 = assay: as above; type: cell-based; conditions: Homo sapiens, MCF7, read-out: percent growth inhibition
A498 = assay: as above; type: cell-based; conditions: Homo sapiens, A498, read-out: percent growth inhibition
HOP-92 = assay: as above; type: cell-based; conditions: Homo sapiens, HOP-92, read-out: percent growth inhibition

For `O=C(/C=C/c1c[nH]cn1)c1cccc(NCc2ccc(CO)cc2)c1` [Compound 5m, (E)-1–(3-((4-(hydroxymethyl)benzyl)amino)phenyl)-3-(1H-imidazol-4-yl)prop-2-en-1-one], the inhibition at 10 µM (786-0) was 11.7%, the inhibition at 10 µM (K-562) was 80.4% and the inhibition at 10 µM (MOLT-4) was 28.5%. For the same compound, the “Full panel Mean GI %” value [1] was 25.19%, the inhibition at 10 µM (A549/ATCC) was 14.1% and the inhibition at 10 µM (HT29) was 24.9%. The inhibition at 10 µM (M14) was 15%, the inhibition at 10 µM (OVCAR-3) was 5.3% and the inhibition at 10 µM (SK-OV-3) was -2.54%. The inhibition at 10 µM (SW-620) was 23.8%, the inhibition at 10 µM (COLO 205) was -0.06% and the inhibition at 10 µM (OVCAR-4) was 22%. It also gave an inhibition at 10 µM (CCRF-CEM) of 45.6%, an inhibition at 10 µM (NCI-H522) of 89.4% and an inhibition at 10 µM (T-47D) of 47.8%. It also gave an inhibition at 10 µM (NCI-H460) of 6.83%, an inhibition at 10 µM (MALME-3M) of 23.1% and an inhibition at 10 µM (SF-295) of 4.92%. It also gave an inhibition at 10 µM (NCI-H322M) of 13%, an inhibition at 10 µM (NCI/ADR-RES) of 6.75% and an inhibition at 10 µM (MDA-MB-468) of 80.5%. For the same compound, the inhibition at 10 µM (NCI-H23) was 18.6%, the inhibition at 10 µM (SR) was 92.9% and the inhibition at 10 µM (CAKI-1) was 8.35%. For the same compound, the inhibition at 10 µM (RXF 393) was 38.3%, the inhibition at 10 µM (OVCAR-5) was -1.46% and the inhibition at 10 µM (BT-549) was 34%. It also gave an inhibition at 10 µM (U251) of 56%, an inhibition at 10 µM (UACC-257) of 22.5% and an inhibition at 10 µM (SK-MEL-5) of 21.7%. It also gave an inhibition at 10 µM (LOX IMVI) of 58.6%, an inhibition at 10 µM (DU-145) of 6.04% and an inhibition at 10 µM (SNB-19) of 16.8%. For the same compound, the inhibition at 10 µM (EKVX) was 32.2%, the inhibition at 10 µM (SK-MEL-28) was 6.66% and the inhibition at 10 µM (HCT-15) was 21.5%. The inhibition at 10 µM (SF-268) was 8.96%, the inhibition at 10 µM (MCF7) was 66% and the inhibition at 10 µM (A498) was 2.28%. The inhibition at 10 µM (HOP-92) was 22.2%.
Work on `O=C(/C=C/c1c[nH]cn1)c1cccc(NCc2ccc3oc(=O)ccc3c2)c1` [Compound 5n, (E)-6-(((3–(3-(1H-imidazol-4-yl)acryloyl)phenyl)amino)methyl)-2H-chromen-2-one] yielded an inhibition at 10 µM (786-0) of 31.8%, an inhibition at 10 µM (K-562) of 87.2% and an inhibition at 10 µM (MOLT-4) of 61.1%. For the same compound, the “Full panel Mean GI %” value [1] was 37.53%, the inhibition at 10 µM (A549/ATCC) was 25.6% and the inhibition at 10 µM (HT29) was 63.2%. The inhibition at 10 µM (M14) was 24.5%, the inhibition at 10 µM (OVCAR-3) was 13.8% and the inhibition at 10 µM (SK-OV-3) was -4.46%. The inhibition at 10 µM (SW-620) was 31.8%, the inhibition at 10 µM (COLO 205) was 29.2% and the inhibition at 10 µM (OVCAR-4) was 39.2%. For the same compound, the inhibition at 10 µM (CCRF-CEM) was 62.1%, the inhibition at 10 µM (NCI-H522) was 138% and the inhibition at 10 µM (T-47D) was 54%. It also gave an inhibition at 10 µM (NCI-H460) of 23.4%, an inhibition at 10 µM (MALME-3M) of 37.8% and an inhibition at 10 µM (SF-295) of 12.6%. For the same compound, the inhibition at 10 µM (NCI-H322M) was 18.1%, the inhibition at 10 µM (NCI/ADR-RES) was 10.6% and the inhibition at 10 µM (MDA-MB-468) was 83.2%. The inhibition at 10 µM (NCI-H23) was 28.3%, the inhibition at 10 µM (SR) was 98.1% and the inhibition at 10 µM (CAKI-1) was 8.01%. The inhibition at 10 µM (RXF 393) was 38.5%, the inhibition at 10 µM (OVCAR-5) was 10.4% and the inhibition at 10 µM (BT-549) was 22.9%. The inhibition at 10 µM (U251) was 68.2%, the inhibition at 10 µM (UACC-257) was 43.6% and the inhibition at 10 µM (SK-MEL-5) was 30.6%. The inhibition at 10 µM (LOX IMVI) was 75.9%, the inhibition at 10 µM (DU-145) was 20.9% and the inhibition at 10 µM (SNB-19) was 25.7%. For the same compound, the inhibition at 10 µM (EKVX) was 45.6%, the inhibition at 10 µM (SK-MEL-28) was 13.3% and the inhibition at 10 µM (HCT-15) was 33.9%. It also gave an inhibition at 10 µM (SF-268) of 10.9%, an inhibition at 10 µM (MCF7) of 90.1% and an inhibition at 10 µM (A498) of 4.82%. It also gave an inhibition at 10 µM (HOP-92) of 25.8%.
